Measured values taken from ChEMBL document CHEMBL3797052 (Eur J Med Chem, 2016).

System: A498
Experiment: Antiproliferative activity against human A498 cells assessed as growth inhibition after 48 hrs by sulforhodamine B assay
Assay type: functional
Details: A498, 48 h

SMILES | GI50 [µM] | LC50 (concentration killing 50% of cells) [µM] | TGI [µM]
CNC(=O)c1cc(Oc2ccc3nc(NC(=O)Nc4ccc(Cl)c(Cl)c4)sc3c2)ccn1 | 2.93 | > 100 | 6.64

System: K562
Experiment: Antiproliferative activity against human K562 cells assessed as cell growth at 10^-7 M after 48 hrs by sulforhodamine B assay
Assay type: functional
Details: K562, 48 h, read-out: Activity

SMILES | growth at 0.1 µM [%]
CNC(=O)c1cc(Oc2ccc3nc(NC(=O)Nc4ccc(Cl)c(Cl)c4)sc3c2)ccn1 | 98

System: EKVX
Experiment: Antiproliferative activity against human EKVX cells assessed as cell growth at 10^-7 M after 48 hrs by sulforhodamine B assay
Assay type: functional
Details: read-out: Activity

SMILES | growth at 0.1 µM [%]
CNC(=O)c1cc(Oc2ccc3nc(NC(=O)Nc4ccc(Cl)c(Cl)c4)sc3c2)ccn1 | 93

System: U-251
Experiment: Antiproliferative activity against human U251 cells assessed as cell growth at 10^-7 M after 48 hrs by sulforhodamine B assay
Assay type: functional
Details: U-251, 48 h, read-out: Activity

SMILES | growth at 0.1 µM [%]
CNC(=O)c1cc(Oc2ccc3nc(NC(=O)Nc4ccc(Cl)c(Cl)c4)sc3c2)ccn1 | 99

System: CCRF-CEM
Experiment: Antiproliferative activity against human CCRF-CEM cells assessed as cell growth at 10^-5 M after 48 hrs by sulforhodamine B assay
Assay type: functional
Details: read-out: Activity

SMILES | growth at 10 µM [%]
CNC(=O)c1cc(Oc2ccc3nc(NC(=O)Nc4ccc(Cl)c(Cl)c4)sc3c2)ccn1 | 76

System: not listed separately
Experiment: Antiproliferative activity against human MOLT4 cells assessed as cell growth at 10^-5 M after 48 hrs by sulforhodamine B assay
Assay type: functional
Details: MOLT-4, 48 h, read-out: Activity

SMILES | growth at 10 µM [%]
CNC(=O)c1cc(Oc2ccc3nc(NC(=O)Nc4ccc(Cl)c(Cl)c4)sc3c2)ccn1 | 76

System: SR
Experiment: Antiproliferative activity against human SR cells assessed as cell growth at 10^-5 M after 48 hrs by sulforhodamine B assay
Assay type: functional
Details: read-out: Activity

SMILES | growth at 10 µM [%]
CNC(=O)c1cc(Oc2ccc3nc(NC(=O)Nc4ccc(Cl)c(Cl)c4)sc3c2)ccn1 | 39

System: A549
Experiment: Antiproliferative activity against human A549/ATCC cells assessed as cell growth at 10^-5 M after 48 hrs by sulforhodamine B assay
Assay type: functional
Details: A549, 48 h, read-out: Activity

SMILES | growth at 10 µM [%]
CNC(=O)c1cc(Oc2ccc3nc(NC(=O)Nc4ccc(Cl)c(Cl)c4)sc3c2)ccn1 | -62

System: EKVX
Experiment: Antiproliferative activity against human EKVX cells assessed as cell growth at 10^-5 M after 48 hrs by sulforhodamine B assay
Assay type: functional
Details: read-out: Activity

SMILES | growth at 10 µM [%]
CNC(=O)c1cc(Oc2ccc3nc(NC(=O)Nc4ccc(Cl)c(Cl)c4)sc3c2)ccn1 | 16

System: NCI-H226
Experiment: Antiproliferative activity against human NCI-H226 cells assessed as cell growth at 10^-5 M after 48 hrs by sulforhodamine B assay
Assay type: functional
Details: NCI-H226, 48 h, read-out: Activity

SMILES | growth at 10 µM [%]
CNC(=O)c1cc(Oc2ccc3nc(NC(=O)Nc4ccc(Cl)c(Cl)c4)sc3c2)ccn1 | -56

System: NCI-H23
Experiment: Antiproliferative activity against human NCI-H23 cells assessed as cell growth at 10^-5 M after 48 hrs by sulforhodamine B assay
Assay type: functional
Details: NCI-H23, 48 h, read-out: Activity

SMILES | growth at 10 µM [%]
CNC(=O)c1cc(Oc2ccc3nc(NC(=O)Nc4ccc(Cl)c(Cl)c4)sc3c2)ccn1 | 2

System: NCI-H460
Experiment: Antiproliferative activity against human NCI-H460 cells assessed as cell growth at 10^-5 M after 48 hrs by sulforhodamine B assay
Assay type: functional
Details: NCI-H460, 48 h, read-out: Activity

SMILES | growth at 10 µM [%]
CNC(=O)c1cc(Oc2ccc3nc(NC(=O)Nc4ccc(Cl)c(Cl)c4)sc3c2)ccn1 | -40

System: not listed separately
Experiment: Antiproliferative activity against human SF295 cells assessed as cell growth at 10^-5 M after 48 hrs by sulforhodamine B assay
Assay type: functional
Details: SF-295, 48 h, read-out: Activity

SMILES | growth at 10 µM [%]
CNC(=O)c1cc(Oc2ccc3nc(NC(=O)Nc4ccc(Cl)c(Cl)c4)sc3c2)ccn1 | -81

System: not listed separately
Experiment: Antiproliferative activity against human SNB75 cells assessed as cell growth at 10^-5 M after 48 hrs by sulforhodamine B assay
Assay type: functional
Details: SNB-75, 48 h, read-out: Activity

SMILES | growth at 10 µM [%]
CNC(=O)c1cc(Oc2ccc3nc(NC(=O)Nc4ccc(Cl)c(Cl)c4)sc3c2)ccn1 | -69

System: U-251
Experiment: Antiproliferative activity against human U251 cells assessed as cell growth at 10^-5 M after 48 hrs by sulforhodamine B assay
Assay type: functional
Details: U-251, 48 h, read-out: Activity

SMILES | growth at 10 µM [%]
CNC(=O)c1cc(Oc2ccc3nc(NC(=O)Nc4ccc(Cl)c(Cl)c4)sc3c2)ccn1 | -84

System: not listed separately
Experiment: Antiproliferative activity against human SKOV3 cells assessed as cell growth at 10^-7 M after 48 hrs by sulforhodamine B assay
Assay type: functional
Details: SK-OV-3, 48 h, read-out: Activity

SMILES | growth at 0.1 µM [%]
CNC(=O)c1cc(Oc2ccc3nc(NC(=O)Nc4ccc(Cl)c(Cl)c4)sc3c2)ccn1 | 115

System: M14
Experiment: Antiproliferative activity against human M14 cells assessed as cell growth at 10^-5 M after 48 hrs by sulforhodamine B assay
Assay type: functional
Details: M14, 48 h, read-out: Activity

SMILES | growth at 10 µM [%]
CNC(=O)c1cc(Oc2ccc3nc(NC(=O)Nc4ccc(Cl)c(Cl)c4)sc3c2)ccn1 | -47

System: SK-MEL-5
Experiment: Antiproliferative activity against human SK-MEL-5 cells assessed as cell growth at 10^-5 M after 48 hrs by sulforhodamine B assay
Assay type: functional
Details: SK-MEL-5, 48 h, read-out: Activity

SMILES | growth at 10 µM [%]
CNC(=O)c1cc(Oc2ccc3nc(NC(=O)Nc4ccc(Cl)c(Cl)c4)sc3c2)ccn1 | -32

System: not listed separately
Experiment: Antiproliferative activity against human UACC257 cells assessed as cell growth at 10^-5 M after 48 hrs by sulforhodamine B assay
Assay type: functional
Details: UACC-257, 48 h, read-out: Activity

SMILES | growth at 10 µM [%]
CNC(=O)c1cc(Oc2ccc3nc(NC(=O)Nc4ccc(Cl)c(Cl)c4)sc3c2)ccn1 | -23

System: not listed separately
Experiment: Antiproliferative activity against human IGROV1 cells assessed as cell growth at 10^-5 M after 48 hrs by sulforhodamine B assay
Assay type: functional
Details: IGROV-1, 48 h, read-out: Activity

SMILES | growth at 10 µM [%]
CNC(=O)c1cc(Oc2ccc3nc(NC(=O)Nc4ccc(Cl)c(Cl)c4)sc3c2)ccn1 | -20

System: not listed separately
Experiment: Antiproliferative activity against human OVCAR3 cells assessed as cell growth at 10^-5 M after 48 hrs by sulforhodamine B assay
Assay type: functional
Details: OVCAR-3, 48 h, read-out: Activity

SMILES | growth at 10 µM [%]
CNC(=O)c1cc(Oc2ccc3nc(NC(=O)Nc4ccc(Cl)c(Cl)c4)sc3c2)ccn1 | -37

System: not listed separately
Experiment: Antiproliferative activity against human NCI-ADR-RES cells assessed as cell growth at 10^-5 M after 48 hrs by sulforhodamine B assay
Assay type: functional
Details: read-out: Activity

SMILES | growth at 10 µM [%]
CNC(=O)c1cc(Oc2ccc3nc(NC(=O)Nc4ccc(Cl)c(Cl)c4)sc3c2)ccn1 | -43

System: not listed separately
Experiment: Antiproliferative activity against human SKOV3 cells assessed as cell growth at 10^-5 M after 48 hrs by sulforhodamine B assay
Assay type: functional
Details: SK-OV-3, 48 h, read-out: Activity

SMILES | growth at 10 µM [%]
CNC(=O)c1cc(Oc2ccc3nc(NC(=O)Nc4ccc(Cl)c(Cl)c4)sc3c2)ccn1 | -74

System: 786-0
Experiment: Antiproliferative activity against human 786-0 cells assessed as cell growth at 10^-5 M after 48 hrs by sulforhodamine B assay
Assay type: functional
Details: 786-0, 48 h, read-out: Activity

SMILES | growth at 10 µM [%]
CNC(=O)c1cc(Oc2ccc3nc(NC(=O)Nc4ccc(Cl)c(Cl)c4)sc3c2)ccn1 | -41

System: ACHN
Experiment: Antiproliferative activity against human ACHN cells assessed as cell growth at 10^-5 M after 48 hrs by sulforhodamine B assay
Assay type: functional
Details: read-out: Activity

SMILES | growth at 10 µM [%]
CNC(=O)c1cc(Oc2ccc3nc(NC(=O)Nc4ccc(Cl)c(Cl)c4)sc3c2)ccn1 | -30

System: not listed separately
Experiment: Antiproliferative activity against human RXF393 cells assessed as cell growth at 10^-5 M after 48 hrs by sulforhodamine B assay
Assay type: functional
Details: RXF 393, 48 h, read-out: Activity

SMILES | growth at 10 µM [%]
CNC(=O)c1cc(Oc2ccc3nc(NC(=O)Nc4ccc(Cl)c(Cl)c4)sc3c2)ccn1 | -74

System: SN12C
Experiment: Antiproliferative activity against human SN12C cells assessed as cell growth at 10^-5 M after 48 hrs by sulforhodamine B assay
Assay type: functional
Details: read-out: Activity

SMILES | growth at 10 µM [%]
CNC(=O)c1cc(Oc2ccc3nc(NC(=O)Nc4ccc(Cl)c(Cl)c4)sc3c2)ccn1 | 14

System: not listed separately
Experiment: Antiproliferative activity against human TK10 cells assessed as cell growth at 10^-5 M after 48 hrs by sulforhodamine B assay
Assay type: functional
Details: TK-10, 48 h, read-out: Activity

SMILES | growth at 10 µM [%]
CNC(=O)c1cc(Oc2ccc3nc(NC(=O)Nc4ccc(Cl)c(Cl)c4)sc3c2)ccn1 | -4

System: not listed separately
Experiment: Antiproliferative activity against human PC3 cells assessed as cell growth at 10^-5 M after 48 hrs by sulforhodamine B assay
Assay type: functional
Details: PC-3, 48 h, read-out: Activity

SMILES | growth at 10 µM [%]
CNC(=O)c1cc(Oc2ccc3nc(NC(=O)Nc4ccc(Cl)c(Cl)c4)sc3c2)ccn1 | -53

System: MCF7
Experiment: Antiproliferative activity against human MCF7 cells assessed as cell growth at 10^-5 M after 48 hrs by sulforhodamine B assay
Assay type: functional
Details: MCF7, 48 h, read-out: Activity

SMILES | growth at 10 µM [%]
CNC(=O)c1cc(Oc2ccc3nc(NC(=O)Nc4ccc(Cl)c(Cl)c4)sc3c2)ccn1 | 4

System: MDA-MB-231
Experiment: Antiproliferative activity against human MDA-MB-231 cells assessed as cell growth at 10^-5 M after 48 hrs by sulforhodamine B assay
Assay type: functional
Details: MDA-MB-231, 48 h, read-out: Activity

SMILES | growth at 10 µM [%]
CNC(=O)c1cc(Oc2ccc3nc(NC(=O)Nc4ccc(Cl)c(Cl)c4)sc3c2)ccn1 | -20

System: CCRF-CEM
Experiment: Antiproliferative activity against human CCRF-CEM cells assessed as growth inhibition after 48 hrs by sulforhodamine B assay
Assay type: functional
Details: not given

SMILES | GI50 [µM] | TGI [µM]
CNC(=O)c1cc(Oc2ccc3nc(NC(=O)Nc4ccc(Cl)c(Cl)c4)sc3c2)ccn1 | > 100 | > 100

Same assay, conditions: read-out: LC50 (the source's name)

SMILES | CC50 [µM]
CNC(=O)c1cc(Oc2ccc3nc(NC(=O)Nc4ccc(Cl)c(Cl)c4)sc3c2)ccn1 | > 100

Biological target: RAF proto-oncogene serine/threonine-protein kinase (Homo sapiens, UniProt P04049)
Sequence (P04049 whole entry): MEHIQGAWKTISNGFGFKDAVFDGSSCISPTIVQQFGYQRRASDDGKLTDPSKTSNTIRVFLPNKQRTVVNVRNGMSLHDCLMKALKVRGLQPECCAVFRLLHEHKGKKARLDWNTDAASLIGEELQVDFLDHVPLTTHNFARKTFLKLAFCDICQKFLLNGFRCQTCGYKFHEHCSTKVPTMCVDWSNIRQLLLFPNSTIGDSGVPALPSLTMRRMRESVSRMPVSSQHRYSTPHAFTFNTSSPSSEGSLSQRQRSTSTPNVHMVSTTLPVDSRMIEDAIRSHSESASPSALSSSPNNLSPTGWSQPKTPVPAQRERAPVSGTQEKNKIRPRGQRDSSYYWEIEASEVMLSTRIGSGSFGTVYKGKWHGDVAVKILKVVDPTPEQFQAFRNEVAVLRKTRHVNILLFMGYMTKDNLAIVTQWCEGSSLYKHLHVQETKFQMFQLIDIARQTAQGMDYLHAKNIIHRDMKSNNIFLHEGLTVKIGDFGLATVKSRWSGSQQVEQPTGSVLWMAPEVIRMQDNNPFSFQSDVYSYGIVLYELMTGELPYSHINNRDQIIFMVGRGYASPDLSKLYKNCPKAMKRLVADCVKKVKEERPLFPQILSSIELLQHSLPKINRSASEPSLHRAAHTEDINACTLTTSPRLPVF
Experiment: Inhibition of human C-RAF measured after 40 mins by scintillation counting
Details: not given

SMILES | IC50 [µM]
CNC(=O)c1cc(Oc2ccc3nc(NC(=O)Nc4ccc(Cl)c(Cl)c4)sc3c2)ccn1 | 0.015

System: CCRF-CEM
Experiment: Antiproliferative activity against human CCRF-CEM cells assessed as cell growth at 10^-8 M after 48 hrs by sulforhodamine B assay
Assay type: functional
Details: read-out: Activity

SMILES | growth at 0.01 µM [%]
CNC(=O)c1cc(Oc2ccc3nc(NC(=O)Nc4ccc(Cl)c(Cl)c4)sc3c2)ccn1 | 102

System: not listed separately
Experiment: Antiproliferative activity against human HCC2998 cells assessed as cell growth at 10^-4 M after 48 hrs by sulforhodamine B assay
Assay type: functional
Details: HCC 2998, 48 h, read-out: Activity

SMILES | growth at 100 µM [%]
CNC(=O)c1cc(Oc2ccc3nc(NC(=O)Nc4ccc(Cl)c(Cl)c4)sc3c2)ccn1 | 37

System: A498
Experiment: Antiproliferative activity against human A498 cells assessed as cell growth at 10^-8 M after 48 hrs by sulforhodamine B assay
Assay type: functional
Details: A498, 48 h, read-out: Activity

SMILES | growth at 0.01 µM [%]
CNC(=O)c1cc(Oc2ccc3nc(NC(=O)Nc4ccc(Cl)c(Cl)c4)sc3c2)ccn1 | 101
